These results are taken from ChEMBL document CHEMBL1123417, “New structure-activity relationships of the quinolone antibacterials using the target enzyme. The development and application of a DNA gyrase assay” (J Med Chem, 1986).

Test [1] has as its system Escherichia coli. Description: Antibacterial activity against Escherichia coli (vogel).
Another test relates to Pseudomonas aeruginosa. Description: Antibacterial activity against Pseudomonas aeruginosa (UI-18).
Test [2] concerns Escherichia coli. Briefly: Antibacterial activity against Escherichia coli (H560).
For another test, the system named is Staphylococcus aureus. Briefly: Antibacterial activity against Staphylococcus aureus (H228).
Test [3] concerns the target DNA gyrase (Escherichia coli) (UniProt P0AES6+P0AES4).
Another test has as its system Klebsiella pneumoniae. Description: Antibacterial activity against Klebsiella pneumonia (MGH-2).
In the next test the test system is Streptococcus pneumoniae. Description: Antibacterial activity against Streptococcus pneumoniae (SV-1).

The structures appear in SMILES notation. ≈ marks a conversion by molar mass, not a printed value. Where only a bound is given, the exact number is not on record here.

For `CCn1cc(C(=O)O)c(=O)c2c(N)nc(N3CCCC3)nc21`, the MIC was 100 µg/mL (≈ 330 µM) in the test with Escherichia coli [1]; > 100 µg/mL with Pseudomonas aeruginosa; 100 µg/mL (≈ 330 µM) against Escherichia coli [2]; 100 µg/mL (≈ 330 µM) in the test with Staphylococcus aureus; > 100 µg/mL in the test with Klebsiella pneumoniae; 25 µg/mL (≈ 82.4 µM) in the test on Streptococcus pneumoniae. In test [3], this molecule gave a gyrase cleavage conc of 100 µg/mL.
`CCn1cc(C(=O)O)c(=O)c2ccc(/C=C/N3CCN(C)CC3)nc21`: the MIC against Escherichia coli [1], in the test with Pseudomonas aeruginosa, against Escherichia coli [2], against Staphylococcus aureus, against Klebsiella pneumoniae and with Streptococcus pneumoniae was > 100 µg/mL in each case. Further, the gyrase cleavage conc in test [3] is > 100 µg/mL.
As to `CCn1cc(C(=O)O)c(=O)c2cc(F)c(N3CCSC3)cc21`, the MIC was determined as 0.2 µg/mL (≈ 0.62 µM) with Escherichia coli [1]; 3.1 µg/mL (≈ 9.62 µM) in the test with Pseudomonas aeruginosa; 0.2 µg/mL (≈ 0.62 µM) against Escherichia coli [2]; 0.2 µg/mL (≈ 0.62 µM) in the test on Staphylococcus aureus; 0.4 µg/mL (≈ 1.24 µM) against Klebsiella pneumoniae; 12.5 µg/mL (≈ 38.8 µM) against Streptococcus pneumoniae. The molecule also came in with a gyrase cleavage conc in test [3] of 5 µg/mL.
Consider `CCn1cc(C(=O)O)c(=O)c2ccc(N3CCN(CC#N)CC3)cc21`, for which the MIC was 50 µg/mL (≈ 147 µM) against Escherichia coli [1]; 100 µg/mL (≈ 294 µM) against Pseudomonas aeruginosa; 50 µg/mL (≈ 147 µM) in the test with Escherichia coli [2]; 25 µg/mL (≈ 73.4 µM) in the test with Staphylococcus aureus; > 100 µg/mL against Klebsiella pneumoniae; > 100 µg/mL against Streptococcus pneumoniae. Further, the gyrase cleavage conc in test [3] is 18 µg/mL.
For `CCn1cc(C(=O)O)c(=O)cc1/C=C/c1ccsc1`, the MIC was 25 µg/mL (≈ 90.8 µM) with Escherichia coli [1]; > 100 µg/mL in the test with Pseudomonas aeruginosa; 50 µg/mL (≈ 182 µM) with Escherichia coli [2]; > 100 µg/mL with Staphylococcus aureus; > 100 µg/mL against Klebsiella pneumoniae; > 100 µg/mL with Streptococcus pneumoniae. The molecule further yielded a gyrase cleavage conc in test [3] of 100 µg/mL.
Regarding `CCn1cc(C(=O)O)c(=O)c2ccc(/C=N/N3CCN(C)CC3)nc21`, the MIC was 12.5 µg/mL (≈ 36.4 µM) with Escherichia coli [1]; > 100 µg/mL against Pseudomonas aeruginosa; 12.5 µg/mL (≈ 36.4 µM) against Escherichia coli [2]; 12.5 µg/mL (≈ 36.4 µM) against Staphylococcus aureus; 12.5 µg/mL (≈ 36.4 µM) in the test with Klebsiella pneumoniae; 100 µg/mL (≈ 291 µM) against Streptococcus pneumoniae. The molecule also came in with a gyrase cleavage conc in test [3] of 100 µg/mL.
For the molecule `CC1COc2c(N3CCN(C)CC3)c(F)cc3c(=O)c(C(=O)O)cn1c23` (stereo not drawn), the gyrase cleavage conc in test [3] amounted to 5 µg/mL.
Take `CCn1cc(C(=O)O)c(=O)c2cc(F)c(Cl)cc21`: the MIC came out at 0.8 µg/mL (≈ 2.97 µM) against Escherichia coli [1]; 50 µg/mL (≈ 185 µM) with Pseudomonas aeruginosa; 1.6 µg/mL (≈ 5.93 µM) with Escherichia coli [2]; 3.1 µg/mL (≈ 11.5 µM) in the test on Staphylococcus aureus; 1.6 µg/mL (≈ 5.93 µM) with Klebsiella pneumoniae; 100 µg/mL (≈ 371 µM) in the test with Streptococcus pneumoniae. This molecule gave a gyrase cleavage conc in test [3] of 38 µg/mL.
Consider `CCn1cc(C(=O)O)c(=O)cc1-c1ccc(OC)cc1`, for which the MIC was 50 µg/mL (≈ 183 µM) against Escherichia coli [1]; > 100 µg/mL against Pseudomonas aeruginosa; > 100 µg/mL in the test with Escherichia coli [2]; > 100 µg/mL in the test with Staphylococcus aureus; 50 µg/mL (≈ 183 µM) against Klebsiella pneumoniae; > 100 µg/mL in the test on Streptococcus pneumoniae. The molecule further yielded a gyrase cleavage conc in test [3] of 100 µg/mL.
Turning to `CCn1cc(C(=O)O)c(=O)cc1C`, the MIC against Escherichia coli [1], against Pseudomonas aeruginosa, against Escherichia coli [2], against Staphylococcus aureus, with Klebsiella pneumoniae and in the test on Streptococcus pneumoniae was > 100 µg/mL each time. Moreover, the gyrase cleavage conc in test [3] came to 100 µg/mL.
Turning to `CCn1cc(C(=O)O)c(=O)c2cc(N)c(C)nc21`, the MIC in the test with Escherichia coli [1] is > 100 µg/mL; against Pseudomonas aeruginosa, > 100 µg/mL; in the test on Escherichia coli [2], 100 µg/mL (≈ 404 µM); against Staphylococcus aureus, 50 µg/mL (≈ 202 µM); against Klebsiella pneumoniae it was > 100 µg/mL; in the test on Streptococcus pneumoniae, 50 µg/mL (≈ 202 µM). Besides, the gyrase cleavage conc in test [3] was > 100 µg/mL.
As for `CCn1cc(C(=O)O)c(=O)c2cc(F)c(N3CCN(CCN)CC3)cc21`, the MIC against Escherichia coli [1] turned out to be 25 µg/mL (≈ 69 µM); against Pseudomonas aeruginosa it was 50 µg/mL (≈ 138 µM); in the test with Escherichia coli [2], 25 µg/mL (≈ 69 µM); against Staphylococcus aureus, 12.5 µg/mL (≈ 34.5 µM); against Klebsiella pneumoniae, 50 µg/mL (≈ 138 µM); against Streptococcus pneumoniae, 50 µg/mL (≈ 138 µM). The same molecule came in with a gyrase cleavage conc in test [3] of 10 µg/mL.
Regarding `CCn1cc(C(=O)O)c(=O)c2c(N)nc(N3CCNCC3)nc21`, the MIC against Escherichia coli [1] came to 6.3 µg/mL (≈ 19.8 µM); against Pseudomonas aeruginosa, 25 µg/mL (≈ 78.5 µM); against Escherichia coli [2], 3.1 µg/mL (≈ 9.74 µM); in the test on Staphylococcus aureus it was 50 µg/mL (≈ 157 µM); against Klebsiella pneumoniae it was 25 µg/mL (≈ 78.5 µM); in the test on Streptococcus pneumoniae it was 50 µg/mL (≈ 157 µM). Moreover, the gyrase cleavage conc in test [3] was 100 µg/mL.
Take `CCn1cc(C(=O)O)c(=O)c2ccc(C)nc21`: the gyrase cleavage conc in test [3] was determined as 50 µg/mL.
On to `CCn1cc(C(=O)O)c(=O)c2cc(F)c(C)cc21`, for which the MIC was 0.2 µg/mL (≈ 0.802 µM) in the test on Escherichia coli [1]; 12.5 µg/mL (≈ 50.2 µM) in the test with Pseudomonas aeruginosa; 0.4 µg/mL (≈ 1.6 µM) in the test with Escherichia coli [2]; 1.6 µg/mL (≈ 6.42 µM) in the test on Staphylococcus aureus; 0.2 µg/mL (≈ 0.802 µM) in the test with Klebsiella pneumoniae; 100 µg/mL (≈ 401 µM) with Streptococcus pneumoniae. In test [3], this molecule came in with a gyrase cleavage conc of 25 µg/mL.
